Measurements as given in patent publication US10501425B2, “Microbiocidal oxadiazole derivatives” (SYNGENTA PARTICIPATIONS AG, priority 2015, dated 2019).

Experiments:
[1] = test system: Puccinia recondita f. Sp. Tritici; assay: Puccinia recondita f. sp. tritici / wheat / leaf disc preventative (brown rust); type: in vivo; settings: foliar, 200 ppm in the applied formulation, wheat leaf segments cv. Kanzler, preventative (inoculated 1 day after application), compared to untreated, read-out: disease control
Description: Leaf disks or leaf segments of various plant species are cut from plants grown in a greenhouse. The cut leaf disks or segments are placed in multiwell plates (24-well format) onto water agar. The leaf disks are sprayed with a test solution before (preventative) or after (curative) inoculation. Compounds to be tested are prepared as DMSO solutions (max. 10 mg/ml) which are diluted to the appropriate concentration with 0.025% Tween20 just before spraying. The inoculated leaf disks or segments are incubated under defined conditions (temperature, relative humidity, light, etc.) according to the respective test system. A single evaluation of disease level is carried out 3 to 14 days after inoculation, depending on the pathosystem. Percent disease control relative to the untreated check leaf disks or segments is then calculated. Wheat leaf segments cv. Kanzler were placed on agar in multiwell plates (24-well format) and sprayed with the formulated test compound diluted in water. The leaf disks were inoculated with a spore suspension of the fungus 1 day after application. The inoculated leaf segments were incubated at 19° C. and 75% relative humidity (rh) under a light regime of 12 hours light/12 hours darkness in a climate cabinet and the activity of a compound was assessed as percent disease control compared to untreated when an appropriate level of disease damage appears in untreated check leaf segments (7 to 9 days after application). The following compounds at 200 ppm in the applied formulation give at least 80% disease control in this test when compared to untreated control leaf disks under the same conditions, which show extensive disease development.

[2] = test system: Puccinia recondita f. Sp. Tritici; assay: Puccinia recondita f. sp. tritici / wheat / leaf disc curative (brown rust); type: in vivo; settings: foliar, 24 h, 200 ppm in the applied formulation, wheat leaf segments cv. Kanzler, curative (applied 1 day after inoculation), compared to untreated, read-out: disease control
Description: Leaf disks or leaf segments of various plant species are cut from plants grown in a greenhouse. The cut leaf disks or segments are placed in multiwell plates (24-well format) onto water agar. The leaf disks are sprayed with a test solution before (preventative) or after (curative) inoculation. Compounds to be tested are prepared as DMSO solutions (max. 10 mg/ml) which are diluted to the appropriate concentration with 0.025% Tween20 just before spraying. The inoculated leaf disks or segments are incubated under defined conditions (temperature, relative humidity, light, etc.) according to the respective test system. A single evaluation of disease level is carried out 3 to 14 days after inoculation, depending on the pathosystem. Percent disease control relative to the untreated check leaf disks or segments is then calculated.
Wheat leaf segments cv. Kanzler are placed on agar in multiwell plates (24-well format). The leaf segments are then inoculated with a spore suspension of the fungus. Plates were stored in darkness at 19° C. and 75% relative humidity. The formulated test compound diluted in water was applied 1 day after inoculation. The leaf segments were incubated at 19° C. and 75% relative humidity under a light regime of 12 hours light/12 hours darkness in a climate cabinet and the activity of a compound was assessed as percent disease control compared to untreated when an appropriate level of disease damage appears in untreated check leaf segments (6 to 8 days after application).
The following compounds at 200 ppm in the applied formulation give at least 80% disease control in this test when compared to untreated control leaf disks under the same conditions, which show extensive disease development.

[3] = test system: Glomerella lacenarium (Colletotrichum lagenarium); assay: Glomerella lagenarium liquid culture / cucumber / preventative (anthracnose); type: cell-based; settings: Colletotrichum orbiculare; 20 ppm in the applied formulation; liquid culture (PDB), growth inhibition measured photometrically 3 to 4 days after application; compared to untreated; read-out: disease control
Description: Mycelia fragments or conidia suspensions of a fungus prepared either freshly from liquid cultures of the fungus or from cryogenic storage, are directly mixed into nutrient broth. DMSO solutions of the test compound (max. 10 mg/ml) are diluted with 0.025% Tween20 by a factor of 50 and 10 μl of this solution is pipetted into a microtiter plate (96-well format). The nutrient broth containing the fungal spores/mycelia fragments is then added to give an end concentration of the tested compound. The test plates are incubated in the dark at 24° C. and 96% relative humidity. The inhibition of fungal growth is determined photometrically after 2 to 7 days, depending on the pathosystem, and percent antifungal activity relative to the untreated check is calculated.
Conidia of the fungus from cryogenic storage are directly mixed into nutrient broth (PDB—potato dextrose broth). After placing a (DMSO) solution of test compound into a microtiter plate (96-well format), the nutrient broth containing the fungal spores is added.
The following compounds at 20 ppm in the applied formulation give at least 80% disease control in this test when compared to untreated control under the same conditions, which show extensive disease development.

Structure (SMILES) | pest or weed control at 200 ppm [1] [%] | pest or weed control at 200 ppm [2] [%] | inhibition of growth at 20 ppm [3] [%]
COCCC(=O)NCc1ccc(-c2noc(C(F)(F)F)n2)c(F)c1F [Compound 1.53, N-[[2,3-difluoro-4-[5-(trifluoromethyl)-1,2,4-oxadiazol-3-yl]phenyl]methyl]-3-methoxy-propanamide] | ≥ 80 | ≥ 80 | ≥ 80
COCC(=O)NCc1ccc(-c2noc(C(F)(F)F)n2)cn1 [Compound 1.69, 2-methoxy-N-[[5-[5-(trifluoromethyl)-1,2,4-oxadiazol-3-yl]-2-pyridyl]methyl]acetamide] | ≥ 80 | ≥ 80 | ≥ 80
COCCCC(=O)NCc1ccc(-c2noc(C(F)(F)F)n2)cc1Cl [Compound 1.60, N-[[2-chloro-4-[5-(trifluoromethyl)-1,2,4-oxadiazol-3-yl]phenyl]methyl]-4-methoxy-butanamide] | ≥ 80 | ≥ 80 | ≥ 80
N#CCC(=O)NCc1ccc(-c2noc(C(F)(F)F)n2)c(F)c1F [Compound 1.62, 2-cyano-N-[[2,3-difluoro-4-[5-(trifluoromethyl)-1,2,4-oxadiazol-3-yl]phenyl]methyl]acetamide] | ≥ 80 | ≥ 80 | ≥ 80
CC(C)COC(=O)NCc1ccc(-c2noc(C(F)(F)F)n2)cn1 [Compound 2.22, isobutyl N-[[5-[5-(trifluoromethyl)-1,2,4-oxadiazol-3-yl]-2-pyridyl]methyl]carbamate] | ≥ 80 | ≥ 80 | ≥ 80
CCCCCOC(=O)NCc1ccc(-c2noc(C(F)(F)F)n2)cn1 [Compound 2.23, pentyl N-[[5-[5-(trifluoromethyl)-1,2,4-oxadiazol-3-yl]-2-pyridyl]methyl]carbamate] | ≥ 80 |  | ≥ 80
CCCCNC(=O)NCc1ccc(-c2noc(C(F)(F)F)n2)cn1 [Compound 3.20, 1-butyl-3-[[5-[5-(trifluoromethyl)-1,2,4-oxadiazol-3-yl]-2-pyridyl]methyl]urea] | ≥ 80 |  | ≥ 80
CCCC(=O)NCc1ccc(-c2noc(C(F)(F)F)n2)cn1 [Compound 1.67, N-[[5-[5-(trifluoromethyl)-1,2,4-oxadiazol-3-yl]-2-pyridyl]methyl]butanamide] | ≥ 80 | ≥ 80 | ≥ 80
O=C(CC(F)(F)F)NCc1ccc(-c2noc(C(F)(F)F)n2)cn1 [Compound 1.74, 3,3,3-trifluoro-N-[(5-[5-(trifluoromethyl)-1,2,4-oxadiazol-3-yl]-2-pyridyl]methyl]propanamide] | ≥ 80 | ≥ 80 | ≥ 80
CC(C)OC(=O)NCc1ccc(-c2noc(C(F)(F)F)n2)cn1 [Compound 2.29, isopropyl N-[[5-[5-(trifluoromethyl)-1,2,4-oxadiazol-3-yl]-2-pyridyl]methyl]carbamate] | ≥ 80 | ≥ 80 | ≥ 80
COCCCC(=O)NCc1ccc(-c2noc(C(F)(F)F)n2)cc1F [Compound 1.42, N-[[2-fluoro-4-[5-(trifluoromethyl)-1,2,4-oxadiazol-3-yl]phenyl]methyl]-4-methoxy-butanamide] | ≥ 80 | ≥ 80 | ≥ 80
CCCCOC(=O)NCc1ccc(-c2noc(C(F)(F)F)n2)cn1 [Compound 2.26, butyl N-[[5-[5-(trifluoromethyl)-1,2,4-oxadiazol-3-yl]-2-pyridyl]methyl]carbamate] | ≥ 80 | ≥ 80 | ≥ 80
CC(C)C(=O)NCc1ccc(-c2noc(C(F)(F)F)n2)cc1Cl [Compound 1.50, N-[[2-chloro-4-[5-(trifluoromethyl)-1,2,4-oxadiazol-3-yl]phenyl]methyl]-2-methyl-propanamide] |  |  | ≥ 80
CCC(C)C(=O)NCc1ccc(-c2noc(C(F)(F)F)n2)cc1Cl (stereo not shown) [Compound 1.58, N-[[2-chloro-4-[5-(trifluoromethyl)-1,2,4-oxadiazol-3-yl]phenyl]methyl]-2-methyl-butanamide] |  |  | ≥ 80
COCC(=O)NCc1ccc(-c2noc(C(F)(F)F)n2)cc1C(F)(F)F [Compound 1.70, 2-methoxy-N-[[2-(trifluoromethyl)-4-[5-(trifiuoromethyl)-1,2,4-oxadiazol-3-yl]phenyl]methyl]acetamide] |  |  | ≥ 80
CC(C)CNC(=O)NCc1ccc(-c2noc(C(F)(F)F)n2)cc1 [Compound 3.11, 1-isobutyl-3-[[4-[5-(trifluoromethyl)-1,2,4-oxadiazol-3-yl]phenyl]methyl]urea] | ≥ 80 |  | ≥ 80
O=C(NCCCCl)NCc1ccc(-c2noc(C(F)(F)F)n2)cn1 [Compound 3.19] | ≥ 80 |  | 
COCC(=O)NCc1ccc(-c2noc(C(F)(F)F)n2)cc1Cl [Compound 1.57, N-[[2-chloro-4-[5-(trifluoromethyl)-1,2,4-oxadiazol-3-yl]phenyl]methyl]-2-methoxy-acetamide] |  | ≥ 80 | ≥ 80
CC(=O)NCc1ccc(-c2noc(C(F)(F)F)n2)cc1Cl [Compound 1.64, N-[[2-chloro-4-[5-(trifluoromethyl)-1,2,4-oxadiazol-3-yl]phenyl]methyl]acetamide] | ≥ 80 |  | ≥ 80
CCCC(=O)NCc1ccc(-c2noc(C(F)(F)F)n2)cc1Cl [Compound 1.52, N-[[2-chloro-4-[5-(trifiuoromethyl)-1,2,4-oxadiazol-3-yl]phenyl]methyl]butanamide] |  |  | ≥ 80
N#CCC(=O)NCc1ccc(-c2noc(C(F)(F)F)n2)cn1 [Compound 1.73, 2-cyano-N-[[5-[5-(trifluoromethyl)-1,2,4-oxadiazol-3-yl]-2-pyridyl]methyl]acetamide] |  | ≥ 80 | ≥ 80
COCCC(=O)NCc1ccc(-c2noc(C(F)(F)F)n2)cc1Cl [Compound 1.55, N-[[2-chloro-4-[5-(trifluoromethyl)-1,2,4-oxadiazol-3-yl]phenyl]methyl]-3-methoxy-propanamide] |  |  | ≥ 80
CC(C)(C)COC(=O)NCc1ccc(-c2noc(C(F)(F)F)n2)cn1 [Compound 2.34, 2,2-dimethylpropyl N-[[5-[5-(trifluoromethyl)-1,2,4-oxadiazol-3-yl]-2-pyridyl]methyl]carbamate] |  | ≥ 80 | ≥ 80
CCCCCOC(=O)NCc1ccc(-c2noc(C(F)(F)F)n2)cc1 [Compound 2.9, pentyl N-[[4-[5-(trifluoromethyl)-1,2,4-oxadiazol-3-yl]phenyl]methyl]carbamate] | ≥ 80 |  | 
CC(C)(C)CNC(=O)NCc1ccc(-c2noc(C(F)(F)F)n2)cc1 [Compound 3.8, 1-(2,2-dimethylpropyl)-3-[[4-[5-(trifluoromethyl)-1,2,4-oxadiazol-3-yl]phenyl]methyl]urea] | ≥ 80 |  | 
